We go through twelve molecules from patent US20110190336A1, “AZABENZIMIDAZOLONES” (CARA THERAPEUTICS, INC., priority 2008, published 2011).

The structures appear in SMILES notation. Some results are limits rather than exact numbers.

The IC50 is the midpoint of a concentration-inhibition curve.

The assay addresses T1, human DP2 receptor (Homo sapiens, UniProt Q9Y5Y4).
T1 construct: expressed in transfected cells; host or cells: CHO-K1 FLP-In (Invitrogen, catalog no. R758-07), stably transfected
T1 sequence (Q9Y5Y4 1-395): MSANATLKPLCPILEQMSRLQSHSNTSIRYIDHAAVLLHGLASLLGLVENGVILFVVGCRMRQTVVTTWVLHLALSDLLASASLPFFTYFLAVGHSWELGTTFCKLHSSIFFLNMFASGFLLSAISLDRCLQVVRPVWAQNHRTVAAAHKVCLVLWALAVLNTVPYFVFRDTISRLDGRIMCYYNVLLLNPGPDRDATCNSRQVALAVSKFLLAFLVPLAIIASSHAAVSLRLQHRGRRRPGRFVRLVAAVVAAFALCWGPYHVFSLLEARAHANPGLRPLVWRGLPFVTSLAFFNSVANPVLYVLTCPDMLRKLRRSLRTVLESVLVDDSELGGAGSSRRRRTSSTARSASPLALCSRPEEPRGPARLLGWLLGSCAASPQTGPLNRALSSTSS
The experiment in a line: Prostaglandin D2 binding inhibition assay (scintillation proximity assay, 3H PGD2, membranes of transfected CHO cells). To be noted: SPA, 5.5 nM 3H PGD2, CHO-K1 FLP-In human DP2 membranes; upper limit determinable 30 μM; read-out: IC50 ranges for inhibition of PGD2 binding to human DP2. As to the method: The ability of compounds to inhibit binding of prostaglandin D2 (PGD2) to the human DP2 receptor was measured using a scintillation proximity assay (SPA). Chinese Hamster Ovary FLP-In cell lines (CHO-K1 FLP-In, Invitrogen, catalog no. R758-07) were stably transfected with the human DP2 gene (Genebank: AY507142). Cell lines were grown in suspension in EX-CELL 302 CHO Serum-free medium (Sigma, catalog no. 14324C) supplemented with 1% Fetal Bovine Serum (Invitrogen no. 10099-141), 2 mM L-glutamine (Invitrogen, catalog no. 25030-081) and 0.5 mg/ml Hygromycin B (Invitrogen, catalog no. 10687-010). Cells were collected by centrifugation in a Beckman Coulter Allegra X-12R centrifuge at 150×g for 5 minutes at room temperature.
Membranes from transfected cells were isolated for binding assays. Cell pellets containing approximately 2×10^9 cells were resuspended in 35 ml of cold membrane homogenization buffer (10 mM Tris (Sigma, catalog no. T2663), 1 mM EDTA (Fluka BioChemika no. 03690), and 70 μl of protease inhibitor cocktail (Sigma, catalog no. P8340)). Cells were homogenized with 30 strokes of a dounce homogenizer (Kontes, catalog no. 885303-0040), and the solution centrifuged at 200×g for 10 minutes. The supernatant was transferred to a 50 ml Oakridge tube (Beckman, catalog no. 357000) and centrifuged in a Beckman Coulter Avanti J-26×PI centrifuge with a JA30.50 rotor at 81,000×g for 1 hour at 15° C. The pellet was resuspended in membrane storage buffer (50 mM Tris (Sigma, catalog no. T2663), 2.5 mM EDTA (Fluka BioChemika no. 03690), 5 mM magnesium chloride (Sigma, catalog no. M1028), 100 mg/ml sucrose (Sigma, catalog no. 50389) and a 1:500 dilution of protease inhibitor cocktail (Sigma, catalog no. P8340)) and the total protein was quantitated using a BCA protein measurement kit (Pierce, catalog no. 23225). Aliquots were frozen at −80° C. until used. Compounds were tested for their ability to inhibit PGD2 binding to the purified membranes. 5 μg of the purified membranes, 0.25 mg of wheat germ agglutinin PVT SPA beads (GE Healthcare, catalog no. RPNQ0060) and 5.5 nM of ^3H PGD2 (PerkinElmer, catalog no. NET-616) were mixed in assay buffer ((50 mM Tris (Sigma, catalog no. T2663), 10 mM magnesium chloride (Sigma, catalog no. M1028), 100 mM sodium chloride (Sigma, catalog no. S6546) and 0.1% bovine serum albumin (Sigma, catalog no. A2153)). Using a Multidrop bulk dispenser, 75 μl of the assay mixture was dispensed in Optiplates (PerkinElmer, catalog no. 6007299) containing the compounds to be tested. After a 60 minute incubation period at room temperature, the plates were read on a PerkinElmer Topcount NXT HTS, and individual wells were quantitated as counts per minute (CPM). Data were expressed as a percent of the difference between the maximum and minimum responses. IC50 values (the concentration of compound producing 50% of the maximal response) were determined using a two-parameter non-linear regression algorithm analyzed using CambridgeSoft Bioassay software. Table 2 gives the range of IC50 values for claimed compounds in the binding assay.
(SPA uses beads or plates that emit light when radiolabelled molecules are held near them.)
As for `O=C(O)Cn1c(=O)n(C2CCN(S(=O)(=O)c3ccccc3[N+](=O)[O-])CC2)c2ncccc21` [Compound 67, 2-(3-(1-(2-nitrophenylsulfonyl)piperidin-4-yl)-2-oxo-2,3-dihydro-1H-imidazo[4,5-b]pyridin-1-yl)acetic acid], the IC50 was under 1 µM.
With `O=C(O)Cn1c(=O)n(C2CCN(S(=O)(=O)c3cccnc3)CC2)c2ncccc21` [Compound 68, 2-(2-oxo-3-(1-(pyridin-3-ylsulfonyl)piperidin-4-yl)-2,3-dihydro-1H-imidazo[4,5-b]pyridin-1-yl)acetic acid] the figure was 10 to 30 µM.
With `N#Cc1cccc(S(=O)(=O)N2CCC(n3c(=O)n(CC(=O)O)c4cccnc43)CC2)c1` [Compound 69, 2-(3-(1-(3-cyanophenylsuIfonyl)piperidin-4-yl)-2-oxo-2,3-dihydro-1H-imidazo[4,5-b]pyridin-1-yl)acetic acid] the figure was 1 to 10 µM; with `N#Cc1ccccc1S(=O)(=O)N1CCC(n2c(=O)n(CC(=O)O)c3cccnc32)CC1` [Compound 70, 2-(3-(1-(2-cyanophenylsulfonyl)piperidin-4-yl)-2-oxo-2,3-dihydro-1H-imidazo[4,5-b]pyridin-1-yl)acetic acid], under 1 µM.
With `O=C(O)Cn1c(=O)n(C2CCN(S(=O)(=O)c3ccc(Cl)cc3F)CC2)c2ncc(F)cc21` [Compound 71, 2-(3-(1-(4-chloro-2-fluorophenyl-sulfonyl)piperidin-4-yl)-6-fluoro-2-oxo-2,3-dihydro-1H-imidazo[4,5-b]pyridin-1-yl)acetic acid] the figure was 1 to 10 µM; with `O=C(O)Cn1c(=O)n(C2CCN(S(=O)(=O)c3cccc4cccnc34)CC2)c2ncc(F)cc21` [Compound 72, 2-(6-fluoro-2-oxo-3-(1-(quinolin-8-ylsulfonyl)piperidin-4-yl)-2,3-dihydro-1H-imidazo[4,5-b]pyridin-1-yl)acetic acid], 1 to 10 µM.
In the case of `CC(C)Oc1ccc(S(=O)(=O)N2CCC(n3c(=O)n(CC(=O)O)c4cc(F)cnc43)CC2)cc1` [Compound 73, 2-(6-fluoro-3-(1-(4-isopropoxyphenyl-sulfonyl)piperidin-4-yl)-2-oxo-2,3-dihydro-1H-imidazo[4,5-b]pyridin-1-yl)acetic acid], the IC50 was in the range of 10 to 30 µM.
The value for `CS(=O)(=O)c1ccccc1S(=O)(=O)N1CCC(n2c(=O)n(CC(=O)O)c3cc(F)cnc32)CC1` [Compound 74, 2-(6-fluoro-3-(1-(2-(methylsulfonyl)phenylsulfonyl)piperidin-4-yl)-2-oxo-2,3-dihydro-1H-imidazo[4,5-b]pyridin-1-yl)acetic acid] was under 1 µM; that for `CC(C)Oc1ccc(S(=O)(=O)N2CCC(n3c(=O)n(CC(=O)O)c4cccnc43)CC2)cc1` [Compound 75, 2-(3-(1-(4-isopropoxyphenylsulfonyl)piperidin-4-yl)-2-oxo-2,3-dihydro-1H-imidazo[4,5-b]pyridin-1-yl)acetic acid] was over 30 µM.
With `Cc1cc(S(=O)(=O)N2CCC(n3c(=O)n(CC(=O)O)c4cccnc43)CC2)c(C)s1` [Compound 76, 2-(3-(1-(2,5-dimethylthiophen-3-ylsulfonyl)piperidin-4-yl)-2-oxo-2,3-dihydro-1H-imidazo[4,5-b]pyridin-1-yl)acetic acid] the figure was 1 to 10 µM; with `O=C(O)Cn1c(=O)n(C2CCN(S(=O)(=O)c3ccc(Oc4ccccc4)cc3)CC2)c2ncccc21` [Compound 77, 2-(2-oxo-3-(1-(4-phenoxyphenyl-sulfonyl)piperidin-4-yl)-2,3-dihydro-1H-imidazo[4,5-b]pyridin-1-yl)acetic acid], 1 to 10 µM.
Consider `COc1cccc(S(=O)(=O)N2CCC(n3c(=O)n(CC(=O)O)c4cccnc43)CC2)c1` [Compound 78, 2-(3-(1-(3-methoxyphenyl-sulfonyl)piperidin-4-yl)-2-oxo-2,3-dihydro-1H-imidazo[4,5-b]pyridin-1-yl)acetic acid], for which the IC50 was 1 to 10 µM.
